Laboratory results as given in PMC10319809, “Chronic UCN2 treatment desensitizes CRHR2 and improves insulin sensitivity” (Nature Communications, 2023).
Where “and” joins values, the source holds several entries; their conditions need not be identical. Equal entries are not always repeated. Where no end group is shown, it is not given here.

Legend:
hCRHR2α Gq = biological target: T1, hCRHR2α Gq (Homo sapiens, UniProt Q13324); test: ebBRET EMTA, Gq biosensor; assay type: cell-based; settings: HEK293 cells, CRHR2a, n = 2 independent experiments
T1 construct: expressed in transfected cells; host or cells: HEK293 cells (Millipore Sigma), transient PEI co-transfection with biosensor plasmids at Domain Therapeutics
T1 sequence (Q13324 1-411): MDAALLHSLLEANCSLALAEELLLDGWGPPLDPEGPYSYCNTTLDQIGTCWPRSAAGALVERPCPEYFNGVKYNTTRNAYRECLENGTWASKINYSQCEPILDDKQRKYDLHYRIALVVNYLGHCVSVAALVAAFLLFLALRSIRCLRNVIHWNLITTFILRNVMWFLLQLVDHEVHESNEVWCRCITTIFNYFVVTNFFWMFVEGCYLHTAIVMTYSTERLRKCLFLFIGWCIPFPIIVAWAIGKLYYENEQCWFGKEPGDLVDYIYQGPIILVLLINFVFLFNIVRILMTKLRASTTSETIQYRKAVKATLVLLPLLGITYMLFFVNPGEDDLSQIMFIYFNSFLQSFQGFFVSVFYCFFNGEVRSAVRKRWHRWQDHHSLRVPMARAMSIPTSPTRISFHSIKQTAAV
Description: Typically, GPCR desensitization is carried out through the recruitment of β-Arrestins or alternative G-proteins to the receptor. To identify whether these proteins are recruited to CRHR2 in response to UCN2, enhanced bystander bioluminescence resonance energy transfer (ebBRET)-based effector membrane translocation assays (EMTA) were carried out in HEK293 cells[28],[29]. Cells were co-transfected with plasmids expressing unmodified CRHR2a (alpha isoform) and one of various pathway-specific biosensors. […]
Effector membrane translocation biosensor assays (bioSensAll®) were conducted at Domain Therapeutics NA Inc. (Montreal, QC, Canada) and described in cells[28],[29]. […] Briefly, DNA and PEI were diluted separately in 150 mM NaCl, mixed and then incubated for at least 20 min at room temperature (note: salmon sperm DNA (Invitrogen) was used to adjust the total amount of DNA transfected to a final quantity of 1 ug per mL of cell culture to be transfected). During the 20-minute incubation, HEK293 cells were detached, counted and resuspended into cell culture medium to a final density of 350,000 cells per mL. […] Cells were then incubated at room temperature for 10 min and BRET readings subsequently collected with a 0.4 s integration time on a Synergy NEO plate reader (BioTek Instruments, Inc., USA; filters: 400 nm/70 nm, 515 nm/20 nm). […]

[1] = system: heart, white adipose tissue; test: In vivo glucose uptake, fluoro-deoxyglucose (FDG), heart and subcutaneous white adipose tissue; design: species or system mouse; settings: for Glucose Uptake Rate, subcutaneous white adipose tissue (FDG): individual animals (Fig. 2H), 1 mg/kg
Description: Mice were fasted 5 h, dosed IP with 1 mg/kg UCN2 or vehicle. 20 min after dosing mice were injected with 2 mg/kg fluoro-deoxyglucose (FDG) +/− 0.75 IU insulin via tail vein. 15 min after the FDG dose animals were anesthetized and tissues and blood were collected and snap frozen. Plasma and tissues were analyzed for FDG, FDG-monophosphate, glucose, and glucose-monophosphate. The quantification of the analytes was performed by liquid chromatography tandem mass spectrometry (LC-MS/MS) using selected reaction monitoring (SRM) on an Applied Biosystems SCIEX (Framingham, MA, USA) 5500 QTrap mass spectrometer operated in negative ionization mode. Chromatography was achieved on a Shimadzu (Kyoto, Japan) HPLC system under reversed phase LC conditions with gradient elution. Calibration standards were prepared in analyte-free matrix, while quality control samples were prepared in pooled tissue homogenate by standard addition. Experimental tissue samples were mechanically homogenized in a methanol solution followed by evaporation under nitrogen and resuspension with injection solvent prior to analysis on the LC-MS/MS system.

IVLSLDVPIGLLQILLEQARARAAREQATTNARILARVGHC-NH2 (C-terminus assumed) [UCN2, Urocortin 2]
Gq recruitment (hCRHR2α Gq): not recruited
insulin-stimulated glucose uptake in heart, WAT and SKM in vivo ([1]; 1 mg/kg IP UCN2, SKM by [3H]2DG): decreased insulin-stimulated glucose uptake
Glucose Uptake Rate, subcutaneous white adipose tissue (FDG) ([1]; UCN2 1 mg/kg IP +Insulin 0.75 IU): 0.1568 ng/g tissue/min and 0.1229 ng/g tissue/min and 0.1122 ng/g tissue/min and 0.1603 ng/g tissue/min and 0.108 ng/g tissue/min and 0.2201 ng/g tissue/min and 0.1273 ng/g tissue/min and 0.0896 ng/g tissue/min
Glucose Uptake Rate, subcutaneous white adipose tissue (FDG) ([1]; UCN2 1 mg/kg IP +Veh (no insulin)): 0.0619 ng/g tissue/min and 0.036 ng/g tissue/min and 0.07045 ng/g tissue/min and 0.06392 ng/g tissue/min and 0.06486 ng/g tissue/min and 0.04044 ng/g tissue/min and 0.02401 ng/g tissue/min and 0.1458 ng/g tissue/min
